In US8865672B2, “Prevention of tissue ischemia and related methods” (The United States of America, as represented by the …, priority 2006, dated 2014):
Structures can show the parent of a compound that is named as a salt.

How the values were obtained:
[1] = tested on: murine ASMC (CD47 null); assay: Murine ASMC proliferation; format: cell-based, mouse; conditions: CD47 null MASMC
Description: (§1) Murine ASMC were obtained from aortic segments harvested sterilely from C57B1/6 CD47 null or CD36 null mice as described (Ray et al., Methods Cell Sci 23:185-188, 2001) and cultured in SM-GM (Cambrex)+20% FCS. In the case of CD36 null cells, culture flasks were pre-coated with 1% gelatin prior to cell plating. Wild type C57B1/6 ASMC cultures were prepared as previously described (Isenberg et al., Matrix Biol 24:110-123, 2005). Cell culture purity was determined by immunohistochemistry staining for α-smooth muscle actin. Cells were used within passage 1 to 4 to minimize overgrowth of other cell types.
Proliferation of vascular cells was measured with a non-radioactive colorimetric assay (CellTiter 96, Promega, Madison, Wis.). Briefly, to each well of a 96-well culture plate (Nunc, Denmark) 5×10^3 cells were suspended in 100 μl of culture medium with indicated treatments and incubated for 72 hours at 37° C. in a 5% CO2 atmosphere. Following incubation 20 μl of tetrazolium compound/solubilization agent was added and incubation continued for 4 hours under the same conditions. The plate was then read on a MR580 Microelisa Auto Reader (Dynatech) at a wavelength of 490 nm. Appropriate zero time controls were run for all assays and the optical density readings obtained then subtracted from those obtained at 72 hours.

[2] = tested on: human platelets; assay: Thrombin-induced human platelet aggregation; format: cell-based; conditions: for NO delay of thrombin-induced platelet aggregation: DEA/NO 10 μM
In short: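 Washed human platelets in Tyrode's buffer pH 7.4 (2×10^5/μl) are stirred at 1200 rpm and 37 °C, and optical aggregation is followed for 5 min; under static conditions, A400 is tracked for 5 min instead. TSP1 agents or 1 μM peptide C6d are pre-incubated for 15 min before thrombin ± DEA/NO (10 μM).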

[3] = tested on: human platelets; assay: cGMP in human platelets; format: cell-based; conditions: washed human platelets in Tyrode's buffer
Description: Fresh human platelets at 2×10^5 platelets/μl in Tyrode's buffer or PRP were pre-incubated with the indicated agents for 15 minutes and then challenged with DEA/NO for the indicated time interval at room temperature and total cGMP determined via immunoassay (Amersham, GE Healthcare, Buckinghamshire, UK). Murine WT and TSP1-null platelets were treated with DEA/NO and cGMP flux measured.

[4] = tested on: murine ASMC (WT, CD36 null, CD47 null); assay: Intracellular cGMP in murine ASMC; format: cell-based, mouse; conditions: WT MASMC
Description: as §1
HUVEC (10^4 cells/well) grown overnight in 96-well culture plates containing full growth medium with 2% FCS and weaned in growth medium without additives and 1% FCS over 24 hrs before treatment with NO donors and other agents in SM-GM without additives+0.1% BSA. Intracellular cGMP levels were determined according to the manufacturer's instructions using an enzyme immunoassay kit (Amersham Biosciences). In other experiments ASMC from wild type and CD36 or CD47 null mice were plated onto 96-well culture plates and incubated overnight in full growth medium. They were then weaned off serum as described to SM-GM+0.1% BSA and treated with NO donor and other agents as indicated. Intracellular cyclic nucleotides were determined via immunoassay.

[5] = tested on: cutaneous perfusion in mice; format: in vivo, mouse
Description: Skin blood flow was measured using laser Doppler imaging (MoorLD1-2λ, Moor Instruments, Devon, England). Briefly, animals were placed in a prone position on a heating pad, and anesthesia was provided by 2% inhalation isoflurane in a 50:50 mixture of oxygen to room air. Core temperature was monitored by rectal probe and was further controlled with a heat lamp. The hair of the dorsum of the animals was clipped and depilated with Nare™ and a template with a 1 cm^2 area used to trace a region of interest (ROI). After equilibration to the experimental set-up analysis of cutaneous blood flow was obtained. The following instrument settings were used: override distance 21 cm; scan time 4 msec/pixel. Results are expressed as the change percent control from baseline of the ROI.

[6] = tested on: blood pressure and pulse in mice; assay: Blood pressure and pulse measurements (tail cuff); format: in vivo, mouse; conditions: for mean pulse: after i.p. challenge; for blood pressure response: i.p.
Description: Mean systolic, diastolic and arterial blood pressure (BP) and mean pulse was measured in age and sex matched mice using a computerized tail cuff system (Hatteras Systems, MC4000 Blood Pressure Analysis System, Cary, N.C.). The mice were allowed to acclimate to the apparatus for 5 min prior to the start of measurement. Each animal underwent a cycle of 10 preliminary and 50 experimental pressures measurements for data acquisition and data calculation. Animals were acclimated to the measuring system and protocol for 4 days with treatment with data acquisition being performed on the 5th day. Pressures recordings were performed at the same time each day. Data was accepted if the mouse had valid readings for at least 20 consecutive pulse beats. All studies were performed at the same hour each day.
Respirations were monitored continuously monitored by direct observation of the animal. Body core temperature was measured via rectal probe. Temperature control was performed using a water-circulating warming surface and heating lamp. Following a 15 minute period of stabilization mean systolic, diastolic and arterial blood pressure and mean pulse measurements were determined.

[7] = tested on: skeletal muscle blood oxygenation in mice; assay: BOLD MRI of hindlimb muscle after NO challenge; format: in vivo, mouse; conditions: for magnitude of increased BOLD MRI signal: DEA/NO 100 nmol/g intrarectal
Description: MRI images were acquired using a Bruker Biospin 4.7 T scanner and isoflurane anesthesia. Muscle tissue scanned was at rest, so alterations in oxygenation reflected changes in perfusion rather than in oxygen consumption (Krishna et al., Ilar J 42:209-218, 2001; Watterson et al., Cell Signal 17:289-298, 2005). MR measurements were started after the mouse's body temperature reached 37° C. Prior to the experiments, gradient echo based T1 sequence was used to determine the target slice location. A series of T2* weighted gradient echo blood oxygenation level dependent (BOLD) image data sets at transverse to the midpoint of the femur were repeatedly acquired for 30 min to monitor temporal changes in blood oxygenation and blood flow. DEA/NO (100 nmol/g body weight) was injected with saline via the rectal cannula 5.0 min after starting the scan. Imaging parameters used were: TR=450 ms, Flip angle=45, Nex=1, slice thickness=2 mm, matrix size=64×64, total imaging time for the series was 29 min.

[8] = molecular target: T1, cGK-I (Homo sapiens, UniProt Q13976); assay: cGK in vitro kinase assay of platelet lysates; format: biochemical; conditions: activation via sGC using DEA/NO in intact platelets
T1 construct: endogenous in cells; host or cells: washed human platelets, treated intact, then lysed
T1 sequence (Q13976 1-686 isoform Q13976-2): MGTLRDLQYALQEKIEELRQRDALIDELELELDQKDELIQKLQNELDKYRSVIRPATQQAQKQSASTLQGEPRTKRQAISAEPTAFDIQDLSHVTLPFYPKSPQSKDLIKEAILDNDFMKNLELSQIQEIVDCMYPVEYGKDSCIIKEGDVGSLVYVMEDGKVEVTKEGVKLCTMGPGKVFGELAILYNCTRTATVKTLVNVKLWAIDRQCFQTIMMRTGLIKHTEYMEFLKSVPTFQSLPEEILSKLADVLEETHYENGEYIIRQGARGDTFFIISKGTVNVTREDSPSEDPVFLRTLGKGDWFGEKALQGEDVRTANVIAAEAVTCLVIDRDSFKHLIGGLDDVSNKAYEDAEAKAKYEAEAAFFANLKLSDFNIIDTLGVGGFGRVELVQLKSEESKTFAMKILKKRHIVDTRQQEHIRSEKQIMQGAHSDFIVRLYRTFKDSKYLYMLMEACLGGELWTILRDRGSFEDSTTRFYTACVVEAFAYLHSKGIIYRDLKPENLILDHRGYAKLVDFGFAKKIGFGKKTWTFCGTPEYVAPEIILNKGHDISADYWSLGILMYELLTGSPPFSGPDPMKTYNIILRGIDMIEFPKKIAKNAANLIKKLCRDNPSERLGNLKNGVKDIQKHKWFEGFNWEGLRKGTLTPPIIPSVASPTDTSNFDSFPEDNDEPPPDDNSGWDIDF
Description: Platelets were washed as described above and resuspended in Tyrode's buffer (3×10^8 platelets/mL). Platelets were preincubated with TSP1 (2.2 nM) or Rp-8-pCPT-cGMP for 15 minutes prior to treatment with 8-Br-cGMP (100 μM) or NO (DEA/NO 10 μM) for 2 minutes. Treatment was stopped by placing the platelets on ice. Immediately following treatment, platelets were pelleted by centrifugation at 13,000×g at 4° C. for 15 seconds and resuspended in a lysis buffer containing 10 mM HEPES (pH 7.4), 1 mM EDTA, 1 mM 3-Isobutyl-1-methylxanthine, 125 mM KCl, 1 mM phenylmethysulfonylfluoride, 1 μg/ml aprotinin, and 1 μg/ml leupeptin. Resuspended platelets were sonicated on ice 3 times for 10 seconds each before centrifugation at 13,000×g for 5 minutes at 4° C. 100 μg lysate from each sample was incubated at 25° C. for 20 minutes with kinase buffer (150 μM Arg-Lys-Arg-Ser-Arg-Ala-Glu (SEQ ID NO: 17) peptide substrate (Bachem, King of Prussia, Pa.)), 10 mM HEPES pH 7.4, 35 mM β-glycerophosphate, 4 mM MgCl2, 5 μM Rp-8 pCPT-cAMPS, 0.5 mM EDTA, […] [γ-32P]ATPS (Sigma-Aldrich, St. Louis, Mo.)). Kinase assay reactions were terminated by spotting 50 μL of reaction mixture onto nitrocellulose. Nitrocellulose spots were washed 5 times each with 100 μL of 0.5% phosphoric acid before analysis with a scintillation counter.

[9] = tested on: Rap1; assay: Rap1 pulldown assay in platelets; format: cell-based, human; conditions: thrombin
Description: Platelets were diluted to 5×10^8 platelets/mL in Tyrode's buffer and treated with various reagents for the indicated times. Immediately following treatment, platelets were pelleted at 13,000 g for 30 seconds at 4° C. and resuspended in ice-cold lysis buffer containing 20 mM HEPES (pH 7.5), 100 mM NaCl, 10 mM EGTA, 20 mM MgCl2, 8 mM α-glycerophosphate, 1% Triton X-100, 1 mM phenylmethylsulfonylfluoride, 40 mM NaF, 1 mM Na3VO4, 10 μg/mL aprotinin, and 10 μg/mL leupeptin. Lysates were centrifuged at 13,000 g for 5 minutes at 4° C. and the supernatants were incubated for 15 minutes on a tumbler at 4° C. with glutathione Sepharose 4B beads (Amersham) prebound with a GST-Ral GDS RBD fusion protein (kind gift of J. Silvio Gutkind, NIH, Bethesda, Md.). Bead complexes were washed by centrifugation at 6,000 g for 30 seconds at 4° C. followed by resuspension in 0.5 mL lysis buffer; 2 washes were performed for each sample. After the second wash, beads were resuspended in an equal volume of 2×SDS sample buffer and stored at −20° C. For Western analysis, bead-bound proteins in sample buffer were boiled for 10 minutes and subjected to electrophoresis on NuPAGE 10% Bis-Tris gels (Invitrogen, Carlsbad, Calif.), transferred to Immobilon-P PVDF membranes (Millipore, Billerica, Mass.), and blotted with rabbit polyclonal anti-Rapt (sc-65; Santa Cruz Biotechnology, Santa Cruz, Calif.).

[10] = tested on: human platelets; assay: Human platelet adhesion assay; format: cell-based; conditions: fibrinogen vs collagen, 10 μM
Description: Bacteriological Petri dishes (35×10 mm, Becton Dickinson Labware) were pre-coated with collagen (3 μg/ml) or fibrinogen (15 μg/mL) overnight. Following aspiration of non-adherent matrix, dishes were blocked with 1% BSA. Fresh platelets were washed and suspended in Tyrode's buffer and allowed to adhere for 30 minutes. Plates were washed with PBS, fixed with 0.5% glutaraldehyde and stained with 0.02% toluidine blue. Adherent platelets were counted microscopically. In some experiments platelets were pre-incubated with the Rap1 geranylgeranyltransferase inhibitor GGTI-298 (10 μM) for 30 minutes prior to initiating adhesion.

Compound: 3TSR: recombinant type 1 repeats of TSP1
- NO-stimulated proliferation [1]: failed to inhibit
- NO delay of thrombin-induced platelet aggregation ([2]; high shear, thrombin 0.2 U/ml): blocked the ability of NO to delay thrombin-induced aggregation
- NO delay of thrombin-induced platelet aggregation ([2]; static / low shear conditions): reversed the NO delay of aggregation under static conditions
- NO stimulated cGMP in platelets [3]: inhibited NO stimulated cGMP flux
- NO-stimulated cGMP [4]: inhibited NO-stimulated cGMP responses in WT

Compound: CNC[C@H](O)c1ccc(O)c(O)c1 [epinephrine, Epinephrine hydrochloride]
- cutaneous perfusion ([5]; wild type and TSP1 null animals, epinephrine bolus): increased cutaneous perfusion
- lethality ([6]; CD47 null animals, 0.05 μg/animal i.p.): fatal
- mean arterial pressure ([6]; TSP1 null animals, 0.05 μg/animal i.p.): did not show a significant increase
- mean pulse [6]: moderately increased
- mean arterial pressure ([6]; wild type animals, 0.05 μg/animal i.p.): expected increase in mean arterial pressure

Compound: CCN(CC)/[N+]([O-])=N/O.CCNCC [DEA/NO, diethylamine NONOate]
- magnitude of increased BOLD MRI signal ([7]; TSP1 null mice): 25%
- decreased BOLD signal ([7]; TSP null mice): 14%
- decreased BOLD signal ([7]; WT mice): 11%
- magnitude of increased BOLD MRI signal ([7]; WT mice): 15%
- initial increase in cutaneous perfusion ([5]; rectal catheter bolus, core temperature 34.5° C.): significantly greater in TSP1 and CD47 null mice
- 32P-incorporation into cGK-I selective peptide [8]: strongly induced 32P-incorporation
- blood pressure response ([6]; TSP1 null versus wild type): significantly greater decreases in blood pressure measurements
- mean pulse [6]: tended to increase modestly
- blood pressure response ([6]; awake wild type and TSP1-null mice): significant decreases in systolic, diastolic and mean arterial pressure

Compound: COC(=O)[C@H](CC(C)C)NC(=O)c1ccc(NC[C@@H](N)CS)cc1-c1cccc2ccccc12 [GGTI-298, reference compound]
- Rap1 activation (GTP loading) [9]: inhibits basal and partially inhibits thrombin-stimulated Rap1 activation
- platelet aggregation at high shear in the presence of NO ([2]; GGTI-298 preincubation): preferentially delayed platelet aggregation
- thrombin-stimulated adhesion of platelets [10]: selective in adhesion assays for blocking thrombin-stimulated adhesion of platelets on fibrinogen

Compound: C[N+](C)(C)CCCCCC[N+](C)(C)C [hexamethonium, hexamethonium chloride]
- cutaneous perfusion and survival after autonomic blockade ([5]; wild type and TSP1 null animals under isoflurane, 30 μg/gram i.v.): decreases in cutaneous perfusion and eventual cardiovascular collapse and death
